We go through one substance from EP0863769B1 (priority 1996, dated 1998).

For test [1], the system named is menschlicher Influenza Viren der Typen A und B. It counts as binding.
A further test concerns the target B/NIB/48/90 M. The class given is binding, Influenza Viren. Conditions: read-out: Affinität der Bindung an Virus, Kaff.
The target of a further test is A/England/157/83 M. It counts as binding, Influenza Viren. Conditions: read-out: Affinität der Bindung an Virus, Kaff.
In the next test the target is A/NIB/44/90 M. It counts as binding, Influenza Viren. The note with it: read-out: Affinität der Bindung an Virus, Kaff.
The target in another test is A/NIB/50/89 M. It counts as binding, Influenza Viren. Conditions: read-out: Affinität der Bindung an Virus, Kaff.
Another test concerns the target A/NIB/12/89 M. It counts as binding, Influenza Viren. Conditions: read-out: Affinität der Bindung an Virus, Kaff.
In a further test the target is A/NIB/47/89 M. It counts as binding, Influenza Viren. Conditions: read-out: Affinität der Bindung an Virus, Kaff.
Another test deals with A/NIB/3/90 M. The class given is binding, Influenza Viren. Conditions: read-out: Affinität der Bindung an Virus, Kaff.
The target of another test is B/England/222/82 M. It counts as binding, Influenza Viren. The note with it: read-out: Affinität der Bindung an Virus, Kaff.
For the next test, the target named is B/NIB/15/89 M. It counts as binding, Influenza Viren. The note with it: read-out: Affinität der Bindung an Virus, Kaff.
Another test concerns the target A/NIB/23/89 M. The class given is binding, Influenza Viren. Conditions: read-out: Affinität der Bindung an Virus, Kaff.

In the case of “Poly-N-(2-Hydroxyethyl)-acrylamid mit 20% mol. 6SLN [6SLN-PAA]”, the “Inhibition der viralen Zelladhäsion” value in test [1] is listed as “hervoragender Inhibitor aller authentischer Influenza Stämme”. The Kd turned out to be 40 nM at B/NIB/48/90 M; 30 nM on A/England/157/83 M; 10 nM at A/NIB/44/90 M; 20 nM at A/NIB/50/89 M; 100 nM at A/NIB/12/89 M; 10 nM on A/NIB/47/89 M. Also, the Kd at A/NIB/3/90 M came out at 10 nM; at B/England/222/82 M it was 40 nM; at B/NIB/15/89 M, 20 nM; on A/NIB/23/89 M it was 20 nM.
